In the supplement of paper PMC11451515:

System: NOMO1
Experiment: cell viability relative to DMSO control; higher = less cytotoxic
Conditions: 48 h
Summary of the method: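 NOMO1, SEM and P12-Ichikawa leukemia cells spent at least four passages adapting to each medium before use. They were seeded at 500 cells/well (NOMO1, SEM) or 1000 cells/well (P12-Ichikawa) in 5 μl in 1536-well plates and pin-dosed with library compounds in DMSO at 11 threefold steps from 47 μM down to 0.79 nM. After 48 h at 37°C, CellTiter-Glo One luminescence was read. Viability is reported as a percentage of the DMSO wells on each plate, with cell-free wells as background.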

[1] = HPLM + 10% dialyzed FBS, 0.000781 µM
[2] = HPLM + 10% dialyzed FBS, 0.00234 µM
[3] = HPLM + 10% dialyzed FBS, 0.00702 µM
[4] = HPLM + 10% dialyzed FBS, 0.0211 µM
[5] = HPLM + 10% dialyzed FBS, 0.0632 µM
[6] = HPLM + 10% dialyzed FBS, 0.19 µM
[7] = HPLM + 10% dialyzed FBS, 0.569 µM
[8] = HPLM + 10% dialyzed FBS, 1.71 µM
[9] = HPLM + 10% dialyzed FBS, 5.12 µM
[10] = HPLM + 10% dialyzed FBS, 15.4 µM
[11] = HPLM + 10% dialyzed FBS, 46.1 µM
[12] = RPMI 5 mM glucose + 10% FBS, 0.000781 µM
[13] = RPMI 5 mM glucose + 10% FBS, 0.00234 µM
[14] = RPMI 5 mM glucose + 10% FBS, 0.00702 µM
[15] = RPMI 5 mM glucose + 10% FBS, 0.0211 µM
[16] = RPMI 5 mM glucose + 10% FBS, 0.0632 µM
[17] = RPMI 5 mM glucose + 10% FBS, 0.19 µM
[18] = RPMI 5 mM glucose + 10% FBS, 0.569 µM
[19] = RPMI 5 mM glucose + 10% FBS, 1.71 µM
[20] = RPMI 5 mM glucose + 10% FBS, 5.12 µM
[21] = RPMI 5 mM glucose + 10% FBS, 15.4 µM
[22] = RPMI 5 mM glucose + 10% FBS, 46.1 µM
[23] = RPMI 5 mM glucose + 10% dialyzed FBS, 0.000781 µM
[24] = RPMI 5 mM glucose + 10% dialyzed FBS, 0.00234 µM
[25] = RPMI 5 mM glucose + 10% dialyzed FBS, 0.00702 µM
[26] = RPMI 5 mM glucose + 10% dialyzed FBS, 0.0211 µM
[27] = RPMI 5 mM glucose + 10% dialyzed FBS, 0.0632 µM
[28] = RPMI 5 mM glucose + 10% dialyzed FBS, 0.19 µM
[29] = RPMI 5 mM glucose + 10% dialyzed FBS, 0.569 µM
[30] = RPMI 5 mM glucose + 10% dialyzed FBS, 1.71 µM
[31] = RPMI 5 mM glucose + 10% dialyzed FBS, 5.12 µM
[32] = RPMI 5 mM glucose + 10% dialyzed FBS, 15.4 µM
[33] = RPMI 5 mM glucose + 10% dialyzed FBS, 46.1 µM

| SMILES | cell viability [1] [%] | cell viability [2] [%] | cell viability [3] [%] | cell viability [4] [%] | cell viability [5] [%] | cell viability [6] [%] | cell viability [7] [%] | cell viability [8] [%] | cell viability [9] [%] | cell viability [10] [%] | cell viability [11] [%] | cell viability [12] [%] | cell viability [13] [%] | cell viability [14] [%] | cell viability [15] [%] | cell viability [16] [%] | cell viability [17] [%] | cell viability [18] [%] | cell viability [19] [%] | cell viability [20] [%] | cell viability [21] [%] | cell viability [22] [%] | cell viability [23] [%] | cell viability [24] [%] | cell viability [25] [%] | cell viability [26] [%] | cell viability [27] [%] | cell viability [28] [%] | cell viability [29] [%] | cell viability [30] [%] | cell viability [31] [%] | cell viability [32] [%] | cell viability [33] [%] |
| --- | --- | --- | --- | --- | --- | --- | --- | --- | --- | --- | --- | --- | --- | --- | --- | --- | --- | --- | --- | --- | --- | --- | --- | --- | --- | --- | --- | --- | --- | --- | --- | --- | --- |
| Cn1c(Nc2ccc(C(F)(F)F)cc2)nc2cc(Oc3ccnc(-c4nc(C(F)(F)F)c[nH]4)c3)ccc21 | 125 | 125 | 120 | 125 | 144 | 145 | 140 | 129 | 114 | 100 | 45.7 | 124 | 123 | 118 | 134 | 130 | 141 | 124 | 149 | 122 | 119 | 29.5 | 121 | 129 | 121 | 127 | 140 | 130 | 125 | 125 | 104 | 106 | 26.8 |
| O=C(O)c1ccc(-n2nc(-c3ccccc3O)nc2-c2ccccc2O)cc1 | 90 | 97.1 | 111 | 90.6 | 108 | 113 | 95.4 | 86.4 | 91.2 | 74.7 | 44.4 | 94.9 | 92.5 | 93.5 | 94 | 104 | 96.3 | 93.5 | 103 | 96 | 90.5 | 29.8 | 94.3 | 103 | 96.4 | 89.2 | 87 | 88.4 | 89.5 | 94.3 | 79.5 | 68 | 24.2 |
| CC1(C)C(=O)N(CCN2CCC(C(=O)c3ccc(F)cc3)CC2)c2ccccc21 | 117 | 115 | 120 | 141 | 151 | 138 | 162 | 128 | 119 | 129 | 88.7 | 120 | 124 | 120 | 131 | 141 | 142 | 128 | 133 | 117 | 122 | 82.1 | 116 | 120 | 134 | 136 | 134 | 134 | 148 | 132 | 120 | 113 | 84.1 |
| Cc1cccc(C)c1OCC(=O)N[C@@H](Cc1ccccc1)[C@@H](O)C[C@H](Cc1ccccc1)NC(=O)[C@H](C(C)C)N1CCCNC1=O | 95.1 | 106 | 102 | 109 | 104 | 111 | 89 | 91.5 | 91.4 | 81 | 43.9 | 85.8 | 94 | 97.7 | 85.8 | 95.9 | 97.3 | 84 | 78.4 | 83 | 86.4 | 74.4 | 96.9 | 92.9 | 92.9 | 107 | 91.1 | 89.2 | 81.1 | 82.4 | 89.4 | 76.5 | 71 |
| COc1cc2c(Nc3ccc(Cl)c(Cl)c3F)ncnc2cc1OC[C@@H]1C[C@@H]2CN(C)C[C@@H]2C1 | 109 | 113 | 116 | 119 | 115 | 88.4 | 81.2 | 73 | 50.7 | 53.4 | 20.7 | 114 | 121 | 131 | 130 | 127 | 126 | 119 | 117 | 87.9 | 101 | 22.5 | 101 | 124 | 125 | 118 | 124 | 123 | 112 | 98.3 | 79.1 | 83.9 | 24.3 |
| CCN(CC)C(=S)SSC(=S)N(CC)CC | 97.9 | 112 | 135 | 130 | 131 | 121 | 147 | 132 | 5.58 | 46.8 | 2.75 | 104 | 112 | 119 | 120 | 129 | 110 | 127 | 127 | 4.7 | 12.4 | 3.34 | 114 | 120 | 131 | 122 | 123 | 128 | 131 | 120 | 6.51 | 5.46 | 2.56 |
| C[C@H]1C[C@H]2[C@@H]3CCC4=CC(=O)C=C[C@]4(C)[C@@]3(F)[C@@H](O)C[C@]2(C)[C@@]1(O)C(=O)CO | – | – | – | – | – | – | – | – | – | – | – | 120 | 122 | 128 | 122 | 123 | 133 | 131 | 135 | 120 | 120 | 106 | – | – | – | – | – | – | – | – | – | – | – |
| NC1=NC=C(C=C1)C2=CC=C3N=CC\4=C(N(C(=O)\C=C4)C5=CC(=CC=C5)C(F)(F)F)C3=C2 | 80.5 | 76.8 | 62.6 | 57.6 | 41.2 | 27.1 | 24.1 | 24.3 | 21.4 | 18.6 | 16.5 | 86.1 | 83.9 | 75.3 | 74.4 | 55 | 29.7 | 30.3 | 23.2 | 15.3 | 11.7 | 13.2 | 68.9 | 72.8 | 74.1 | 61.4 | 46 | 28.5 | 29.5 | 22.9 | 17.2 | 13.5 | 17.1 |
| CCCCNc1cc(C(=O)O)cc([S+](N)(=O)[O-])c1Oc1ccccc1 | – | – | – | – | – | – | – | – | – | – | – | 118 | 113 | 128 | 127 | 129 | 115 | 124 | 120 | 136 | 146 | 135 | – | – | – | – | – | – | – | – | – | – | – |
